For assay [1], the target named is hPAD4 (Homo sapiens, UniProt Q9UM07). As to the kind of experiment: hPAD4 RFMS (RapidFire mass spectrometry) PAD4 inhibition assay.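 On hPAD4 RFMS pIC50: grade E means pIC50 at most 4 and F means pIC50 4.0 to 5.0.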 The class given is biochemical. The conditions noted are these: hPAD4 enzyme, RFMS readout. The procedure:
(§1) Compounds of the present invention were assayed as inhibitors of PAD4 using the assay protocol described below.
(§2) Compound stock solutions were stored at RT. […] Final assay conditions were as follows:
(§3) Total incubation time: 65 mins at 37° C.
(§4) Stop solution: 40 μl 5% TCA in ACN
(§5) The compound numbers correspond to the compound numbers in Table 1. […] The term pIC50=−log(IC50). […] “NA” stands for “not assayed.”

For assay [2], the target named is mPAD4 (Mus musculus, UniProt Q9Z183). As to the kind of experiment: mPAD4 RFMS PAD4 inhibition assay.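 On mPAD4 RFMS pIC50: grade E means pIC50 at most 4 and F means pIC50 4.0 to 5.0.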 The class given is biochemical. As to conditions: mPAD4, RFMS readout. The method, then: as §1, §2, §3, §4, §5
Sequence of mPAD4 (Q9Z183 whole entry): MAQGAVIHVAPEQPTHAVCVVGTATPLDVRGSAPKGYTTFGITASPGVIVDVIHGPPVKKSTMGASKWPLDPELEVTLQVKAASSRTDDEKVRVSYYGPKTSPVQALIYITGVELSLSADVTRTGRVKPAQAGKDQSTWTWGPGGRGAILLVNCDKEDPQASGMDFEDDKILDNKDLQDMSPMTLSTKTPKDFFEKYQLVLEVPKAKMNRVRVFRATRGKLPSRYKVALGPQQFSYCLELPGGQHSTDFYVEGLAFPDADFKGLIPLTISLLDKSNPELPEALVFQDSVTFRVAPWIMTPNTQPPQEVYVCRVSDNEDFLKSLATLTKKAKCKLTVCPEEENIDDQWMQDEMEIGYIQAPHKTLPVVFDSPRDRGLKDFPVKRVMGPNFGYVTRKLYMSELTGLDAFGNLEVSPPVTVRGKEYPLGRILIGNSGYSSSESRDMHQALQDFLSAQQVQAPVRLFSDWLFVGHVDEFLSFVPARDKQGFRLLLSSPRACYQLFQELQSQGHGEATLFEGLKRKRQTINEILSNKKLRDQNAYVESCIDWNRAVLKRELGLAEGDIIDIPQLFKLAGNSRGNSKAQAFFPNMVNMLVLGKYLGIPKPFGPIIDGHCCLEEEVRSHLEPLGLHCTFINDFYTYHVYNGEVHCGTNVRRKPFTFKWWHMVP
Setting [3] is: pIC50=−log(IC50), read-out: hPAD4 RFMS pIC50 (converted).
[4] abbreviates: pIC50=−log(IC50), read-out: mPAD4 RFMS pIC50 (converted).

Where two headings read alike, the source gives them in different places. Where only a bound is given, the exact number is not on record here.

Sequence of hPAD4 (Q9UM07 whole entry): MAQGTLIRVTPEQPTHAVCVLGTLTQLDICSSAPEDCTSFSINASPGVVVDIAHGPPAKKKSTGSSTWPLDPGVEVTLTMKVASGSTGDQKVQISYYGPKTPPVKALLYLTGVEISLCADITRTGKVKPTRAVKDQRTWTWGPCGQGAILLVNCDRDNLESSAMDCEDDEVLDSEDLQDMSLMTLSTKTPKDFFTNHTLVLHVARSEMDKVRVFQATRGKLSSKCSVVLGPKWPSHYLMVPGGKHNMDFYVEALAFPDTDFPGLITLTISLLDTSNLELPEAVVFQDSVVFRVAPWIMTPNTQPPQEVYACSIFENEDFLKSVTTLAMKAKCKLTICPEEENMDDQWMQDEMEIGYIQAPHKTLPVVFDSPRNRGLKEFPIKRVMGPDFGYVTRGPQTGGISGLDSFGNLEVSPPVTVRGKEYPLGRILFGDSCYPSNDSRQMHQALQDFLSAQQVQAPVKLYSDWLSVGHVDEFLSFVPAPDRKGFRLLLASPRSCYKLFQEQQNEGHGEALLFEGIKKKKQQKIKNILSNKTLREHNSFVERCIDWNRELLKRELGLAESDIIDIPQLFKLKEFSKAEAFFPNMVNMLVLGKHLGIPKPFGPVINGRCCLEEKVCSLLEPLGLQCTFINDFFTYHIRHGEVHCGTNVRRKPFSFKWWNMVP

Take `CCn1c(-c2nc3cc(C(=O)N4C[C@H]5CC[C@@H]4[C@@H]5N)cc(OC)c3n2C)cc2ccc(OC(F)F)nc21` [Compound I-200, (1R,4R,7R)-2-{2-[6-(difluoromethoxy)-1-ethyl-1H-pyrrolo[2,3-b]pyridin-2-yl]-7-methoxy-1-methyl-1H-1,3-benzodiazole-5-carbonyl}-2-azabicyclo[2.2.1]heptan-7-amine]: the IC50 in assay [1] (setting [3]), in assay [1] (read-out: hPAD4 RFMS IC50), in assay [2] (setting [4]) and in assay [2] (read-out: mPAD4 RFMS IC50) was less than 1000 nM in each case.
In the case of `CCn1c(-c2nc3cc(C(=O)N4CCC[C@@H](N)C4)cc(OC)c3n2C)cc2ccc(OC(F)F)nc21` [Compound I-201], the IC50 in assay [1] (setting [3]), in assay [1] (read-out: hPAD4 RFMS IC50), in assay [2] (setting [4]) and in assay [2] (read-out: mPAD4 RFMS IC50) was less than 1000 nM throughout.
`COc1cc(C(=O)N2C[C@H]3CC[C@@H]2[C@@H]3N)cc2nc(-c3cc4cnc(C)nc4n3CC3CC3)n(C)c12` [Compound I-202, (1R,4R,7R)-2-{2-[7-(Cyclopropylmethyl)-2-methyl-7H-pyrrolo[2,3-d]pyrimidin-6-yl]-7-methoxy-1-methyl-1H-1,3-benzodiazole-5-carbonyl}-2-azabicyclo[2.2.1]heptan-7-amine]: the IC50 in assay [1] (setting [3]) was less than 1000 nM; in assay [1] (read-out: hPAD4 RFMS IC50), less than 1000 nM; in assay [2] (setting [4]) it was 1000 to 10000 nM; in assay [2] (read-out: mPAD4 RFMS IC50), 1000 to 5000 nM.
Regarding `COc1cc(C(=O)N2CCC[C@@H](N)C2)cc2nc(-c3cc4cnc(C)nc4n3CC3CC3)n(C)c12` [Compound I-203], the IC50 in assay [1] (setting [3]) was less than 1000 nM; in assay [1] (read-out: hPAD4 RFMS IC50) it was less than 1000 nM; in assay [2] (setting [4]) it was 1000 to 10000 nM; in assay [2] (read-out: mPAD4 RFMS IC50), 1000 to 5000 nM.
Take `CCn1c(-c2nc3cc(C(=O)N4CCC[C@@H](N)C4)cc(OC)c3n2C[C@H]2C[C@@](C)(OC)C2)cc2ccc(OC)nc21` [Compound I-204]: the IC50 in assay [1] (setting [3]), in assay [1] (read-out: hPAD4 RFMS IC50), in assay [2] (setting [4]) and in assay [2] (read-out: mPAD4 RFMS IC50) was less than 1000 nM throughout.
For `CCn1c(-c2nc3cc(C(=O)N4C[C@H](N)C[C@@H](F)C4)cc(OC)c3n2C[C@H]2C[C@@](C)(OC)C2)cc2ccc(OC)nc21` [Compound I-205], the IC50 in assay [1] (setting [3]), in assay [1] (read-out: hPAD4 RFMS IC50), in assay [2] (setting [4]) and in assay [2] (read-out: mPAD4 RFMS IC50) was less than 1000 nM in each case.
As for `CCn1c(-c2nc3cc(C(=O)N4C[C@H]5CC[C@@H]4[C@@H]5N)cc(OC)c3n2C[C@H]2C[C@@](C)(OC)C2)cc2ccc(OC)nc21` [Compound I-206], the IC50 in assay [1] (setting [3]), in assay [1] (read-out: hPAD4 RFMS IC50), in assay [2] (setting [4]) and in assay [2] (read-out: mPAD4 RFMS IC50) was less than 1000 nM each time.
As for `CCn1c(-c2nc3cc(C(=O)N4C[C@H]5CC[C@@H]4[C@@H]5N)cc(OC)c3n2[C@H]2C[C@H](OC)C2)cc2cccnc21` [Compound I-207], the IC50 is 1000 to 10000 nM in assay [1] (setting [3]), 5000 to 10000 nM in assay [1] (read-out: hPAD4 RFMS IC50), 1000 to 10000 nM in assay [2] (setting [4]) and 1000 to 5000 nM in assay [2] (read-out: mPAD4 RFMS IC50).
With `COc1cc(C(=O)N2C[C@H](N)C[C@@H](F)C2)cc2nc(-c3cc4ccc(C(F)(F)F)nc4n3CC3CC3)n(C)c12` [Compound I-208], the IC50 in assay [1] (setting [3]), in assay [1] (read-out: hPAD4 RFMS IC50), in assay [2] (setting [4]) and in assay [2] (read-out: mPAD4 RFMS IC50) was less than 1000 nM each time.
For the compound `COc1cc(C(=O)N2C[C@H](N)C[C@@H](F)C2)cc2nc(-c3cc4cccnc4n3CC3CC3)n(C[C@H]3C[C@@](C)(OC)C3)c12` [Compound I-209], the IC50 in assay [1] (setting [3]), in assay [1] (read-out: hPAD4 RFMS IC50), in assay [2] (setting [4]) and in assay [2] (read-out: mPAD4 RFMS IC50) was less than 1000 nM in each case.
With `COc1cc(C(=O)N2C[C@H]3CC[C@@H]2[C@@H]3N)cc2nc(-c3cc4ccc(C(C)(C)O)nc4n3CC3CC3)n(C)c12` [Compound I-210, 2-(2-{5-[(1R,4R,7R)-7-Amino-2-azabicyclo[2.2.1]heptane-2-carbonyl]-7-methoxy-1-methyl-1H-1,3-benzodiazol-2-yl}-1-(cyclopropylmethyl)-1H-pyrrolo[2,3-b]pyridin-6-yl)propan-2-ol], the IC50 in assay [1] (setting [3]), in assay [1] (read-out: hPAD4 RFMS IC50), in assay [2] (setting [4]) and in assay [2] (read-out: mPAD4 RFMS IC50) was less than 1000 nM in each case.
For the compound `COc1cc(C(=O)N2CCC[C@@H](N)C2)cc2nc(-c3cc4ccc(C(C)(C)O)nc4n3CC3CC3)n(C)c12` [Compound I-211], the IC50 in assay [1] (setting [3]), in assay [1] (read-out: hPAD4 RFMS IC50), in assay [2] (setting [4]) and in assay [2] (read-out: mPAD4 RFMS IC50) was less than 1000 nM throughout.
Regarding `COc1cc(C(=O)N2C[C@@H]3CC[C@H]2[C@@H](N)C3)cc2nc(-c3cc4cccnc4n3CC3CC3)n(C)c12` [Compound I-212], the IC50 is 10000 to 100000 nM in assay [1] (setting [3]), more than 10000 nM in assay [1] (read-out: hPAD4 RFMS IC50), 10000 to 100000 nM in assay [2] (setting [4]) and more than 10000 nM in assay [2] (read-out: mPAD4 RFMS IC50).
As for `COc1cc(C(=O)N2C[C@H]3CC[C@@H]2[C@@H]3N)cc2nc(-c3cc4cccnc4n3CC3CC3)n(CC[S+](C)[O-])c12` (stereo partly drawn) [Compound I-213, (1R,4R,7R)-2-{2-[1-(Cyclopropylmethyl)-1H-pyrrolo[2,3-b]pyridin-2-yl]-1-(2-methanesulfinylethyl)-7-methoxy-1H-1,3-benzodiazole-5-carbonyl}-2-azabicyclo[2.2.1]heptan-7-amine], the IC50 in assay [1] (setting [3]), in assay [1] (read-out: hPAD4 RFMS IC50), in assay [2] (setting [4]) and in assay [2] (read-out: mPAD4 RFMS IC50) was less than 1000 nM each time.
Take `COc1cc(C(=O)N2C[C@H]3CC[C@@H]2[C@@H]3N)cc2nc(-c3cc4cccnc4n3CC3CC3)n(CCS(C)(=O)=O)c12` [Compound I-214, (1R,4R,7R)-2-{2-[1-(cyclopropylmethyl)-1H-pyrrolo[2,3-b]pyridin-2-yl]-1-(2-methanesulfonylethyl)-7-methoxy-1H-1,3-benzodiazole-5-carbonyl}-2-azabicyclo[2.2.1]heptan-7-amine]: the IC50 is less than 1000 nM in assay [1] (setting [3]), less than 1000 nM in assay [1] (read-out: hPAD4 RFMS IC50), 1000 to 10000 nM in assay [2] (setting [4]) and 1000 to 5000 nM in assay [2] (read-out: mPAD4 RFMS IC50).
Consider `COc1cc(C(=O)N2C[C@@H]3CC[C@H]2[C@H](N)C3)cc2nc(-c3cc4cccnc4n3CC3CC3)n(C)c12` [Compound I-215], for which the “hPAD4 RFMS pIC50” value in assay [1] (pIC50=−log(IC50)) is recorded as “E/F”. Also, the IC50 in assay [1] (read-out: hPAD4 RFMS IC50) and in assay [2] (read-out: mPAD4 RFMS IC50) was more than 10000 nM throughout. Moreover, the “mPAD4 RFMS pIC50” value in assay [2] (pIC50=−log(IC50)) is “E/F”.
As for `COc1cc(C(=O)N2C[C@H]3CC[C@@H]2[C@@H](N)C3)cc2nc(-c3cc4cccnc4n3CC3CC3)n(C)c12` [Compound I-216], the IC50 in assay [1] (setting [3]) was 10000 to 100000 nM; in assay [1] (read-out: hPAD4 RFMS IC50), more than 10000 nM; in assay [2] (setting [4]) it was 10000 to 100000 nM; in assay [2] (read-out: mPAD4 RFMS IC50), more than 10000 nM.
As for `COc1cc(C(=O)N2C[C@H]3CC[C@@H]2[C@@H]3N)cc2nc(-c3cc4cccnc4n3CC3CC3)n(CC3CCOC3)c12` (some centres unmarked) [Compound I-217], the IC50 in assay [1] (setting [3]), in assay [1] (read-out: hPAD4 RFMS IC50), in assay [2] (setting [4]) and in assay [2] (read-out: mPAD4 RFMS IC50) was less than 1000 nM in each case.
Regarding `CCn1c(-c2nc3cc(C(=O)N4C[C@H]5CC[C@@H]4[C@@H]5N)cc(OC)c3n2[C@H]2C[C@@H](OC)C2)cc2cccnc21` [Compound I-218], the IC50 in assay [1] (setting [3]) was 1000 to 10000 nM; in assay [1] (read-out: hPAD4 RFMS IC50), 1000 to 5000 nM; in assay [2] (setting [4]) it was 1000 to 10000 nM; in assay [2] (read-out: mPAD4 RFMS IC50), 1000 to 5000 nM.
With `COc1cc(C(=O)N2C[C@H]3CC[C@@H]2[C@@H]3N)cc2nc(-c3cc4cccnc4n3CC3CC3)n([C@H]3C[C@@H](OC)C3)c12` [Compound I-219], the IC50 in assay [1] (setting [3]) was less than 1000 nM; in assay [1] (read-out: hPAD4 RFMS IC50), less than 1000 nM; in assay [2] (setting [4]) it was 1000 to 10000 nM; in assay [2] (read-out: mPAD4 RFMS IC50), 1000 to 5000 nM.

The values are drawn from patent publication US9963448B2, “Bicyclic inhibitors of PAD4” (Padlock Therapeutics, Inc., priority 2015, dated 2018).
